We go through 6 compounds from patent EP0557936A1, “Amidic derivatives of (R)-glycerophosphoryl-(S)-serine or of its diacyl derivative, process for their preparation and relative pharmaceutical compositions for the improvement of the learning processes” (MAGIS FARMACEUTICI S.p.A., priority 1992, dated 1993).

Assay [1] deals with scopolamine induced amnesy. The experiment in a line: passive avoidance test, scopolamine induced amnesia (intraperitoneal administration). The format is in vivo, rat. Conditions: scopolamine 1 mg/kg; for Avoid. time (sec.) After 24 h: re-test after 24 h, end-point 300 second. As for the experimental part:
(§1) The antiamnesic activity was tested by means of the classical passive avoidance test, with respect to the amnesy induced in the rat, by administration of scopolamine, or by means of electroconvulsive shock (ECS).For both the tests a shuttle-box was used of the Ugo Basile Company (Comerio, Varese), consisting of two compartments, one of which compartments was clear and the other one dark and fitted with an electrifiable floor.
(§2) In order to induce a passive avoidance response, the animal was placed onto a runner of the clear compartment, enlightened by a 60 watt lamp, for a 1 minute acclimatisation, whereafter a bulkhead was opened putting the runner in communication with the dark compartment, which the animal istinctively entered after a latency of a few seconds. The bulkhead was immediately shut and the animal got a 0.21 mA current for 2 second through the electrifiable floor. The animal was then removed and newly subjected to the test 24 h later, in order to verify the retention level of the acquired response of passive avoidance, measuring the latency required by the entry into the electrifiable compartment, with an end-point of 300 second.
(§3) All the tests were carried out under conditions of stratified randomization, using in each test session the same number of animals for the different experimental groups tested in parallel, and comprising, besides the groups treated with the product under test (test substances and reference substances having known activity), two separate groups of controls and precisely: blank controls (animals treated with placebo) and deconditioned controls (animals treated with placebo and subjected to amnesic treatment by means of scopolamine or of ECS).
(§4) The results obtained with the different dosages of the products subjected to screening and with the corresponding reference standards having a known activity, namely N(S)-3-(formyl-amino)-epsilon-caprolactam, N(4-phenylbutanoyl-hydroxy)prolyl-pyrrolidine and glycerophosphoryl-serine, were expressed as a percentage of antagonism of the amnesy (AA), defined according to the following formula: [formula] wherein the index of comparison IC, concerning treated animals (t) and blank controls (b), is defined by the formula: [formula] wherein: Nm = number of animals belonging to group m (blanks or treated animals); Nn = number of animals belonging to group n (deconditioned animals); Amn = binary function which can assume only the values +1, zero or - 1, depending on the fact that the latency time (seconds) of an animal of the m group (xm) be respectively higher than, equal to or lower than the latency time (seconds) of an animal of the n group (xn).
(§5) The summation Σ Amn i extended to all the pairs obtained combining each xm term with each xn term.
(§6) Normally the comparison index (IC) between blank controls and deconditioned controls is between 60% and 80% and the test was discarded when such index resulted to be lower than 40%.
The utilized rats were male C.r.l.: CD (50) BR (Charles River Italia), showing a weight of 150-170 g, after an acclimatisation time of a week, under standard conditions.
The animals got the products to be tested by intraperitoneal way and scopolamine bromhydrate (1 mg/kg) by subcutaneous way, respectively 45 and 30 minutes before being subjected to the previously described avoidance test.
As to the standard substances [GFS, N(S)-3-(formylamino)-epsilon-caprolactam and N(4-phenylbutanoylhydroxy)prolyl-pyrrolidine], the used dosage was 4x10⁻² mmol/kg, whereas for the products to be tested the used dosage was between 1x10⁻² and 12x10⁻² mmol/kg, with an intermediate dosage equimolar with respect to the one of the standards.

The test system of a further assay is ECS engendered amnesy. The experiment in a line: passive avoidance test, electroconvulsive shock (ECS) induced amnesia. Particulars: groups of 10. In kind it is in vivo, rat. As for the experimental part:
as §1, §2, §3, §4, §5, §6
The animals got the products to be tested 30 minute before undergoing the previously described avoidance test.
In this series of experimental works the deconditioning treatment consists of an electroshock (square wave of 45 m, amplitude 0.6 ms, time 2 s and frequency 40 Hz), delivered by means of auricular electrodes, connected to an electrostimulator ECT/UNIT of the Ugo Basile Company (Comerio, Varese).
The used dosages were 8x10⁻² mmol/kg for the standard substances, therefore higher than the ones used in the preceeding test and this depends on a lower activity of the standard substances, previously ascertained in this test, in our experimental conditions.
The dosages of the products to be tested were correlatively comprised between 2x10⁻² and 24x10⁻² mmol/kg, with an intermediate dosage equimolar (8x10⁻² mmol/kg) with respect to the ones of the standard substances.

Setting [2] is: dose 8 x 10^-2 mmoli/kg i.p. 30' before the acquisition trial.
[3] abbreviates: dose 4 x 10^-2 mmoli/kg i.p. 30' before the acquisition trial.
Where [4] appears, read: dose 12 x 10^-2 mmoli/kg i.p. 30' before the acquisition trial.
[5] abbreviates: dose 16 x 10^-2 mmoli/kg i.p. 30' before the acquisition trial.

For `N[C@@H](COP(=O)(O)OC[C@H](O)CO)C(=O)O` [GFS, glycerophosphoryl-serine, reference compound], in assay [1] (dose 4.10^-2 mmoli/kg i.p.), the “No.of amnesic rats/No. of rats tested” value is 4/10, the Percent amnesia is on record as 40% and the “Avoid. time (sec.) After 24 h” value is 126,5 sec. In addition, the “Time taken to enter chamber (min)” value with ECS engendered amnesy (setting [2]) was 0,236 min.
Consider `COC(=O)CN1CCCC[C@H](NC(=O)[C@@H](N)COP(=O)(O)OC[C@@H](COC(C)=O)OC(C)=O)C1=O` [MGS 1], for which the “No.of amnesic rats/No. of rats tested” value is reported as 2/10 in assay [1] (dose 4.10^-2 mmoli/kg i.p.), 1/10 in assay [1] (dose 8.10^-2 mmoli/kg i.p.) and 0/10 in assay [1] (dose 12.10^-2 mmoli/kg i.p.). Moreover, the values for the Percent amnesia in assay [1] (dose 4.10^-2 mmoli/kg i.p.), in assay [1] (dose 8.10^-2 mmoli/kg i.p.) and in assay [1] (dose 12.10^-2 mmoli/kg i.p.) were 20%, 10% and 0%, respectively. Moreover, the “Avoid. time (sec.) After 24 h” value in assay [1] (dose 4.10^-2 mmoli/kg i.p.) was 243,5 sec; in assay [1] (dose 8.10^-2 mmoli/kg i.p.) it was 266,6 sec; in assay [1] (dose 12.10^-2 mmoli/kg i.p.) it was 300 s. For the same compound, the “Time taken to enter chamber (min)” value in the assay with ECS engendered amnesy (setting [3]) is 0,664 min; in the assay with ECS engendered amnesy (setting [2]), 1,378 min; in the assay on ECS engendered amnesy (setting [4]), 1,916 min; in the assay on ECS engendered amnesy (setting [5]), 1,615 min.
On to `COC(=O)CN1CCCC[C@H](NC(=O)[C@@H](N)COP(=O)(O)OC[C@H](O)CO)C1=O` [MGS 2], for which the “No.of amnesic rats/No. of rats tested” value in assay [1] (dose 4.10^-2 mmoli/kg i.p.) is 2/10; in assay [1] (dose 8.10^-2 mmoli/kg i.p.), 0/10; in assay [1] (dose 12.10^-2 mmoli/kg i.p.) it was 0/10. For the same compound, the Percent amnesia in assay [1] (dose 4.10^-2 mmoli/kg i.p.) was 20%; in assay [1] (dose 8.10^-2 mmoli/kg i.p.) it was 0%; in assay [1] (dose 12.10^-2 mmoli/kg i.p.), 0%. The “Avoid. time (sec.) After 24 h” value in assay [1] (dose 4.10^-2 mmoli/kg i.p.) came out at 270 s; in assay [1] (dose 8.10^-2 mmoli/kg i.p.), 300 s; in assay [1] (dose 12.10^-2 mmoli/kg i.p.) it was 300 s. Besides, the “Time taken to enter chamber (min)” value in the assay with ECS engendered amnesy (setting [3]) was 0,557 min; in the assay with ECS engendered amnesy (setting [2]), 1,418 min; with ECS engendered amnesy (setting [4]), 2,072 min; in the assay with ECS engendered amnesy (setting [5]) it was 1,777 min.
With `N[C@@H](COP(=O)(O)OC[C@H](O)CO)C(=O)N[C@H]1CCCCNC1=O` [MGS 4], the figures for the “Time taken to enter chamber (min)” value in the assay with ECS engendered amnesy (setting [2]), in the assay with ECS engendered amnesy (setting [4]) and in the assay with ECS engendered amnesy (dose 24 x 10^-2 mmoli/kg i.p. 30' before the acquisition trial) were 0,466 min, 1,316 min and 1,883 min, respectively.
`O=CN[C@H]1CCCCNC1=O` [N-Formylamino ε -caprolactame, N(S)-3-(formyl-amino)-epsilon-caprolactam, reference compound]: in assay [1] (dose 4.10^-2 mmoli/kg i.p.), the “No.of amnesic rats/No. of rats tested” value is on record as 4/10, the Percent amnesia is listed as 40% and the “Avoid. time (sec.) After 24 h” value is recorded as 72,5 sec. Further, the “Time taken to enter chamber (min)” value in the assay with ECS engendered amnesy (setting [2]) was 0,131 min.
Regarding “N(4-phenylbutanoyl-hydroxy)prolyl-pyrrolidine [Phenyl-butirryl prolyl-pirrolidine, reference compound]”, in assay [1] (dose 4.10^-2 mmoli/kg i.p.), the “No.of amnesic rats/No. of rats tested” value was 4/10, the Percent amnesia is reported as 40% and the “Avoid. time (sec.) After 24 h” value is on record as 101,7 sec. Moreover, the “Time taken to enter chamber (min)” value in the assay on ECS engendered amnesy (setting [2]) is given as 0,213 min.
